No end group written: not given here.
Legend:
mutant SsSte2 = type: cell-based, Scheffersomyces stipites
SsSte2 mutants = type: cell-based, Scheffersomyces stipites

## KHWPQIAQFAPS [nucleocapsid epitope]
Mutant SsSte2
  EC50: ~10 µM
SsSte2 mutants
  biosensor signal compared to signal in the presence of water: over twice as strong

— patent US20240368664A1, “LIVE YEAST BIOSENSORS AND METHODS OF USE THEREOF” (priority 2021, published 2024)
